Columns and labels:
Assay type in all cases: ADME, cell-based
Details in all cases: human
A549 [1] = experiment: Metabolic stability in A549 cells assessed as rate of prodrug loss in anoxic condition
A549 [2] = experiment: Metabolic stability in A549 cells assessed as rate of 6-thioguanine production in anoxic condition
A549 [3] = experiment: Metabolic stability in A549 cells assessed as rate of prodrug loss in aerobic condition
A549 [4] = experiment: Metabolic stability in A549 cells assessed as rate of 6-thioguanine production in aerobic condition

SMILES | Activity (A549 [1]) [nM/min] | Activity (A549 [2]) [nM/min] | Activity (A549 [3]) [nM/min] | Activity (A549 [4]) [nM/min]
Nc1nc(SCc2ccc([N+](=O)[O-])cc2)c2nc[nH]c2n1 | 39 | 0 | 0 | 1.7
CC(C)(Sc1nc(N)nc2[nH]cnc12)c1ccc([N+](=O)[O-])cc1 | 100 | 72 | 9.5 | 1.7

— ChEMBL document CHEMBL1140001, “Hypoxia-driven elimination of thiopurines from their nitrobenzyl prodrugs” (Bioorg Med Chem Lett, 2007)
